Source: ChEMBL document CHEMBL3885881, “DrugMatrix”

Species on record: Rattus norvegicus
Assay: DrugMatrix - Regimen: Daily Repeat
Assay type: toxicity, organism-based, Sprague-Dawley
Set-up: regimen Daily Repeat, gender Male, age 6-8 weeks
Details: in vivo, sc, route subcutaneous, […]; for ABSOLUTE BASOPHIL / ABSOLUTE EOSINOPHIL / ABSOLUTE LYMPHOCYTE / ABSOLUTE MONOCYTE / ABSOLUTE SEGMENTED NEUTROPHIL / BASOPHIL / EOSINOPHIL / ERYTHROCYTE COUNT / HEMATOCRIT / HEMOGLOBIN / LEUKOCYTE COUNT / LYMPHOCYTE / MEAN CORPUSCULAR HEMOGLOBIN / MEAN CORPUSCULAR HEMOGLOBIN CONCENTRATION / MEAN CORPUSCULAR VOLUME / MONOCYTE / NEUTROPHIL / NUCLEATED RED BLOOD CELLS / PLATELET COUNT: tissue Blood; for ALANINE AMINOTRANSFERASE / ALKALINE PHOSPHATASE / ASPARTATE AMINOTRANSFERASE / BLOOD UREA NITROGEN / CARBON DIOXIDE / CHLORIDE / CHOLESTEROL / CREATINE PHOSPHOKINASE / CREATININE / GLUCOSE / LACTATE DEHYDROGENASE / LIPASE / PHOSPHORUS / POTASSIUM / SODIUM / TOTAL BILIRUBIN / TOTAL PROTEIN / URIC ACID: tissue Plasma
[1] = 17 mg/kg, 120 h, dose level Low, time 5 day
[2] = 800 mg/kg, 72 h, dose level High, time 3 day
[3] = 800 mg/kg, 120 h, dose level High, time 5 day

With `CC(C)Cn1cnc2c(N)nc3ccccc3c21` [IMIQUIMOD] the “ABSOLUTE BASOPHIL” value [1] was 0 CELLS/uL, the “ABSOLUTE EOSINOPHIL” value [1] was 29.67 CELLS/uL and the “ABSOLUTE LYMPHOCYTE” value [1] was 8944.33 CELLS/uL. The “ABSOLUTE MONOCYTE” value [1] was 43 CELLS/uL, the “ABSOLUTE SEGMENTED NEUTROPHIL” value [1] was 1349.67 CELLS/uL and the BASOPHIL [1] was 0%. The EOSINOPHIL [1] was 0.33%, the “ERYTHROCYTE COUNT” value [1] was 5.45 x10E6/uL and the HEMATOCRIT [1] was 33.33%. The HEMOGLOBIN [1] was 12.27 G/DL, the “LEUKOCYTE COUNT” value [1] was 10.37 x10E3/uL and the LYMPHOCYTE [1] was 85.67%. For the same compound, the “MEAN CORPUSCULAR HEMOGLOBIN” value [1] was 22.53 pg, the “MEAN CORPUSCULAR HEMOGLOBIN CONCENTRATION” value [1] was 36.77 G/DL and the “MEAN CORPUSCULAR VOLUME” value [1] was 61.17 fL. For the same compound, the MONOCYTE [1] was 0.33%, the NEUTROPHIL [1] was 13.67% and the “NUCLEATED RED BLOOD CELLS” value [1] was 0.67 /100WBC. For the same compound, the “PLATELET COUNT” value [1] was 1497.33 x10E3/uL, the “ALANINE AMINOTRANSFERASE” value [1] was 53 u/L and the “ALKALINE PHOSPHATASE” value [1] was 401.33 u/L. The “ASPARTATE AMINOTRANSFERASE” value [1] was 93.33 u/L, the “BLOOD UREA NITROGEN” value [1] was 17 mg/dL and the “CARBON DIOXIDE” value [1] was 23.67 mmol/L. The CHLORIDE [1] was 108.67 MEQ/L, the CHOLESTEROL [1] was 52.33 mg/dL and the “CREATINE PHOSPHOKINASE” value [1] was 410.67 u/L. For the same compound, the CREATININE [1] was 0.19 mg/dL, the GLUCOSE [1] was 174.67 mg/dL and the “LACTATE DEHYDROGENASE” value [1] was 110 u/L. For the same compound, the LIPASE [1] was 7 u/L, the PHOSPHORUS [1] was 13.1 mg/dL and the POTASSIUM [1] was 6.07 MEQ/L. For the same compound, the SODIUM [1] was 146.2 MEQ/L, the “TOTAL BILIRUBIN” value [1] was 0.2 mg/dL and the “TOTAL PROTEIN” value [1] was 5.23 G/DL. The “URIC ACID” value [1] was 1.73 mg/dL, the “ABSOLUTE BASOPHIL” value [2] was 0 CELLS/uL and the “ABSOLUTE EOSINOPHIL” value [2] was 67.67 CELLS/uL. For the same compound, the “ABSOLUTE LYMPHOCYTE” value [2] was 7240 CELLS/uL, the “ABSOLUTE MONOCYTE” value [2] was 88 CELLS/uL and the “ABSOLUTE SEGMENTED NEUTROPHIL” value [2] was 637.67 CELLS/uL. For the same compound, the BASOPHIL [2] was 0%, the EOSINOPHIL [2] was 1% and the “ERYTHROCYTE COUNT” value [2] was 5.31 x10E6/uL. The HEMATOCRIT [2] was 33.3%, the HEMOGLOBIN [2] was 12.5 G/DL and the “LEUKOCYTE COUNT” value [2] was 8.03 x10E3/uL. For the same compound, the LYMPHOCYTE [2] was 90%, the “MEAN CORPUSCULAR HEMOGLOBIN” value [2] was 23.57 pg and the “MEAN CORPUSCULAR HEMOGLOBIN CONCENTRATION” value [2] was 37.57 G/DL. The “MEAN CORPUSCULAR VOLUME” value [2] was 62.73 fL, the MONOCYTE [2] was 1% and the NEUTROPHIL [2] was 8%. For the same compound, the “NUCLEATED RED BLOOD CELLS” value [2] was 0 /100WBC, the “PLATELET COUNT” value [2] was 828 x10E3/uL and the “ALANINE AMINOTRANSFERASE” value [2] was 47 u/L. The “ALKALINE PHOSPHATASE” value [2] was 345.33 u/L, the “ASPARTATE AMINOTRANSFERASE” value [2] was 91.67 u/L and the “BLOOD UREA NITROGEN” value [2] was 15.67 mg/dL. The “CARBON DIOXIDE” value [2] was 28.67 mmol/L, the CHLORIDE [2] was 107 MEQ/L and the CHOLESTEROL [2] was 65 mg/dL. The “CREATINE PHOSPHOKINASE” value [2] was 419.33 u/L, the CREATININE [2] was 0.27 mg/dL and the GLUCOSE [2] was 147 mg/dL. The “LACTATE DEHYDROGENASE” value [2] was 130.67 u/L, the LIPASE [2] was 7.5 u/L and the PHOSPHORUS [2] was 10.23 mg/dL. For the same compound, the POTASSIUM [2] was 5.87 MEQ/L, the SODIUM [2] was 147.45 MEQ/L and the “TOTAL BILIRUBIN” value [2] was 0.13 mg/dL. The “TOTAL PROTEIN” value [2] was 5.17 G/DL, the “URIC ACID” value [2] was 0.73 mg/dL and the “ABSOLUTE BASOPHIL” value [3] was 0 CELLS/uL. For the same compound, the “ABSOLUTE EOSINOPHIL” value [3] was 301.33 CELLS/uL, the “ABSOLUTE LYMPHOCYTE” value [3] was 14418.33 CELLS/uL and the “ABSOLUTE MONOCYTE” value [3] was 118 CELLS/uL. The “ABSOLUTE SEGMENTED NEUTROPHIL” value [3] was 5662.33 CELLS/uL, the BASOPHIL [3] was 0% and the EOSINOPHIL [3] was 1.33%. For the same compound, the “ERYTHROCYTE COUNT” value [3] was 4.85 x10E6/uL, the HEMATOCRIT [3] was 30.53% and the HEMOGLOBIN [3] was 12.07 G/DL. The “LEUKOCYTE COUNT” value [3] was 20.5 x10E3/uL, the LYMPHOCYTE [3] was 70.33% and the “MEAN CORPUSCULAR HEMOGLOBIN” value [3] was 24.9 pg. The “MEAN CORPUSCULAR HEMOGLOBIN CONCENTRATION” value [3] was 39.5 G/DL, the “MEAN CORPUSCULAR VOLUME” value [3] was 62.93 fL and the MONOCYTE [3] was 0.67%. For the same compound, the NEUTROPHIL [3] was 27.67%, the “NUCLEATED RED BLOOD CELLS” value [3] was 0.33 /100WBC and the “PLATELET COUNT” value [3] was 1467 x10E3/uL. For the same compound, the “ALANINE AMINOTRANSFERASE” value [3] was 44 u/L, the “ALKALINE PHOSPHATASE” value [3] was 267.67 u/L and the “ASPARTATE AMINOTRANSFERASE” value [3] was 86 u/L. The “BLOOD UREA NITROGEN” value [3] was 18 mg/dL, the “CARBON DIOXIDE” value [3] was 25 mmol/L and the CHLORIDE [3] was 103.67 MEQ/L. For the same compound, the CHOLESTEROL [3] was 58 mg/dL, the “CREATINE PHOSPHOKINASE” value [3] was 257.33 u/L and the CREATININE [3] was 0.29 mg/dL. The GLUCOSE [3] was 184.67 mg/dL, the “LACTATE DEHYDROGENASE” value [3] was 248 u/L and the LIPASE [3] was 7.67 u/L. For the same compound, the PHOSPHORUS [3] was 11.8 mg/dL, the POTASSIUM [3] was 5.8 MEQ/L and the SODIUM [3] was 142.87 MEQ/L. The “TOTAL BILIRUBIN” value [3] was 0.17 mg/dL, the “TOTAL PROTEIN” value [3] was 5.3 G/DL and the “URIC ACID” value [3] was 1.6 mg/dL.
